Data: article PMC2866172 (Journal of medicinal chemistry, 2010)

How the values were obtained:
[1] = PPB determination in pooled baboon plasma; settings: pooled baboon plasma, 10 min room temperature, % unbound
[2] = patients with inflamed meninges, single 3 g oral dose; cited from earlier work
[3] = Brain PET imaging in anesthetized baboons; settings: for Blood-brain barrier penetration: healthy baboons, TAC, AUC and image
[4] = Torso PET imaging in anesthetized baboons; settings: for Calculated drug concentration in heart / Calculated drug concentration in kidney cortex / Calculated drug concentration in kidney medulla / Calculated drug concentration in liver / Calculated drug concentration in lung / Calculated drug concentration in plasma: calculated assuming 5 mg/kg dose, 17 kg baboon; for Concentration in heart / Concentration in kidney cortex / Concentration in kidney medulla / Concentration in liver / Concentration in lung / Concentration in plasma: baboon, i.v.

## NC(=O)c1cnccn1 [PZA, pyrazinamide]
[1]
  PPB (value expressed as % of free fraction in plasma): 91.32%
[2]
  CSF concentration of PZA: 50 µg/mL
[3]; i.v.
  Blood-brain barrier penetration: excellent penetration

## NN[11C](=O)c1ccncc1 [[^11C]INH]
[4]; 15 min
  Calculated drug concentration in heart: (8.72) µg/ml
  Calculated drug concentration in kidney cortex: (15.06) µg/ml
  Calculated drug concentration in kidney medulla: (18.94) µg/ml
  Calculated drug concentration in liver: (12.50) µg/ml
  Calculated drug concentration in lung: (7.72) µg/ml
  Calculated drug concentration in plasma: (3.76) µg/ml
[4]; 30 min
  Calculated drug concentration in heart: (6.13) µg/ml
  Calculated drug concentration in kidney cortex: (9.26) µg/ml
  Calculated drug concentration in kidney medulla: (15.43) µg/ml
  Calculated drug concentration in liver: (9.71) µg/ml
  Calculated drug concentration in lung: (6.09) µg/ml
  Calculated drug concentration in plasma: (2.96) µg/ml
[4]; 60 min
  Calculated drug concentration in heart: (3.74) µg/ml
  Calculated drug concentration in kidney cortex: (7.72) µg/ml
  Calculated drug concentration in kidney medulla: (16.37) µg/ml
  Calculated drug concentration in liver: (7.64) µg/ml
  Calculated drug concentration in lung: (4.42) µg/ml
  Calculated drug concentration in plasma: (2.05) µg/ml
[4]; 90 min
  Calculated drug concentration in heart: (4.15) µg/ml
  Calculated drug concentration in kidney cortex: (8.54) µg/ml
  Calculated drug concentration in kidney medulla: (14.69) µg/ml
  Calculated drug concentration in liver: (6.91) µg/ml
  Calculated drug concentration in lung: (4.19) µg/ml
  Calculated drug concentration in plasma: (1.62) µg/ml
[4]; 15 min after administration
  Concentration in heart: 0.0103 %ID/cc
  Concentration in kidney cortex: 0.0177 %ID/cc
  Concentration in kidney medulla: 0.0223 %ID/cc
  Concentration in liver: 0.0147 %ID/cc
  Concentration in lung: 0.0091 %ID/cc
  Concentration in plasma: 0.00442 %ID/cc
[4]; 30 min after administration
  Concentration in heart: 0.0072 %ID/cc
  Concentration in kidney cortex: 0.0109 %ID/cc
  Concentration in kidney medulla: 0.0181 %ID/cc
  Concentration in liver: 0.0114 %ID/cc
  Concentration in lung: 0.0072 %ID/cc
  Concentration in plasma: 0.00348 %ID/cc
[4]; 60 min after administration
  Concentration in heart: 0.0044 %ID/cc
  Concentration in kidney cortex: 0.0091 %ID/cc
  Concentration in kidney medulla: 0.0193 %ID/cc
  Concentration in liver: 0.0090 %ID/cc
  Concentration in lung: 0.0052 %ID/cc
  Concentration in plasma: 0.00241 %ID/cc
[4]; 90 min after administration
  Concentration in heart: 0.0049 %ID/cc
  Concentration in kidney cortex: 0.0100 %ID/cc
  Concentration in kidney medulla: 0.0173 %ID/cc
  Concentration in liver: 0.0081 %ID/cc
  Concentration in lung: 0.0049 %ID/cc
  Concentration in plasma: 0.0019 %ID/cc
[3]; 30 min, estimated from baboon weight, 5 mg/kg dose, signal assumed intact drug
  Estimated concentration in whole brain, C30min: 2.54 µg/mL
[3]; 60 min, estimated from baboon weight, 5 mg/kg dose, signal assumed intact drug
  Estimated concentration in whole brain, C60min: 2.11 µg/mL
[3]; 90 min, estimated from baboon weight, 5 mg/kg dose, signal assumed intact drug
  Estimated concentration in whole brain, C90min: 1.75 µg/mL
[3]; baboon, i.v., 30 min
  Concentration in whole brain, C30min: 0.00299 %ID/cc
[3]; baboon, i.v., 60 min
  Concentration in whole brain, C60min: 0.00248 %ID/cc
[3]; baboon, i.v., 90 min
  Concentration in whole brain, C90min: 0.00206 %ID/cc
[3]; i.v.
  Blood-brain barrier penetration: higher initial brain penetration and tissue accumulation when compared to RIF
